In patent publication US11963946B2, “MDMA treatment to enhance acute emotional effects profile of LSD, psilocybin, or other psychedelics” (Universitätsspital Basel, priority 2020, dated 2024):
Several values for one entry are separate records, joined by “and”; a condition that tells them apart may be missing. Equal entries are not always repeated. Where two headings read alike, the source gives them in different places.

Key:
[1] = target: 5-HT transporter (SERT) (Homo sapiens, UniProt P31645); conditions: Rickli et al., 2016; cited from earlier work
5-HT transporter (SERT), sequence (P31645 whole entry, species assumed): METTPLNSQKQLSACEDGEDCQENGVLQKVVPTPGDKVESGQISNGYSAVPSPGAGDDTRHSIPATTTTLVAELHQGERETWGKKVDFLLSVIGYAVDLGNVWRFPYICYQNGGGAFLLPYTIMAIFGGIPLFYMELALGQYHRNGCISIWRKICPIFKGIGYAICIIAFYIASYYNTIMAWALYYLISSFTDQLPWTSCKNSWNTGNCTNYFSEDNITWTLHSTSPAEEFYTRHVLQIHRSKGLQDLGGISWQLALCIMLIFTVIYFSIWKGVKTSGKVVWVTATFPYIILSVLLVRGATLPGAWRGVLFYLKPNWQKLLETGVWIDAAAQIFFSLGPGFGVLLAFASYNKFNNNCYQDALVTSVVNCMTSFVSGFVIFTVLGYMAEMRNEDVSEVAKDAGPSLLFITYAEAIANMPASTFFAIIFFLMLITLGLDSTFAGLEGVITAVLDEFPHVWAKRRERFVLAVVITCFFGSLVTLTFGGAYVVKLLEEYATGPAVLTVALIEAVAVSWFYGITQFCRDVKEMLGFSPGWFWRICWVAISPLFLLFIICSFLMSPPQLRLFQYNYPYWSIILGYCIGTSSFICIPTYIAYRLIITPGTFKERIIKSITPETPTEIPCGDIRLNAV

[2] = system: serotonin 5-HT1 receptors; conditions: Rickli et al., 2016; cited from earlier work
[3] = system: D1-3 receptors; conditions: Rickli et al., 2016; cited from earlier work
[4] = system: healthy humans; conditions: cited from earlier work
[5] = target: 5-HT2A receptor (Homo sapiens, UniProt P28223); conditions: Rickli et al., 2016; cited from earlier work
5-HT2A receptor, sequence (P28223 whole entry): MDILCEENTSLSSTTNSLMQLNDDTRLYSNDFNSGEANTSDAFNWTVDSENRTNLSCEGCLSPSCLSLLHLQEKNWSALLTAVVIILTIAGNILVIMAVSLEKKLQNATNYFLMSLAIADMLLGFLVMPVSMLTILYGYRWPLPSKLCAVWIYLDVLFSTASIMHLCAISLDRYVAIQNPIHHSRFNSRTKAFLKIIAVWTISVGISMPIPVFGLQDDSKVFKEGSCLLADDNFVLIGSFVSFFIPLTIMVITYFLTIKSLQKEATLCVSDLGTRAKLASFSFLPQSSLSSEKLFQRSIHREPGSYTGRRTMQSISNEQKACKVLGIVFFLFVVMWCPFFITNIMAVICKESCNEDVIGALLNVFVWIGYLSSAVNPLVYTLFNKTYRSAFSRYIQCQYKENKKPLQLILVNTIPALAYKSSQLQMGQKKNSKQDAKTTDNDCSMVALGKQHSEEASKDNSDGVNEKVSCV

[6] = system: healthy human subjects; assay: Subjective effects Visual Analog Scales (VAS), LSD-MDMA clinical study; conditions: for peak subjective effects ratings of any drug effect (VAS): oral, mean of two healthy subjects; for bad drug effects (VAS): FIG. 3A; for ratings of being talkative (VAS): FIG. 8A; for wanting to be alone / with other people (VAS): FIGS. 10A and 10B
[7] = system: healthy human subjects; assay: Adverse effects, list of complaints (LC) score, LSD-MDMA clinical study; conditions: 0.1 mg LSD, 100 mg MDMA or both; mean of two subjects; placebo 5
[8] = system: healthy human subjects; conditions: two subjects; FIGS. 12, 13
[9] = system: humans; conditions: cited from earlier work
[10] = target: D2 receptors (Homo sapiens, UniProt P14416); conditions: cited from earlier work
D2 receptors, sequence (P14416 whole entry): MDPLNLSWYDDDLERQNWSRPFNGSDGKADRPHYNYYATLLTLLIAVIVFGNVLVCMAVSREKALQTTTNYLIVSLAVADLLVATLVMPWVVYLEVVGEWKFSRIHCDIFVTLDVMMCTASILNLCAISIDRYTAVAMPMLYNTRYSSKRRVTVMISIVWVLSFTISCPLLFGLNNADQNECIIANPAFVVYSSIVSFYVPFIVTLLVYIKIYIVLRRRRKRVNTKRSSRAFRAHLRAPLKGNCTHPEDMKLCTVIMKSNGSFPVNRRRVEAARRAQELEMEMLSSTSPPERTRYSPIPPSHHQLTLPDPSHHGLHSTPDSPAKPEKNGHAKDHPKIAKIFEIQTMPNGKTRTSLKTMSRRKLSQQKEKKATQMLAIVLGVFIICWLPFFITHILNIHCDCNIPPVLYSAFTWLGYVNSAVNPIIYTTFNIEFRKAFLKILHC

[11] = 0.1 mg LSD, 100 mg MDMA or both, FIG. 2A
[12] = 0.1 mg LSD, 100 mg MDMA or both, two subjects
[13] = oral administration (Vizeli et al., 2017)

CCN(CC)C(=O)[C@@H]1C=C2c3cccc4[nH]cc(c34)C[C@H]2N(C)C1 [LSD, lysergic acid diethylamide]
interaction with the SERT [1]: does not interact with the SERT
agonist potency at serotonin 5-HT1 receptors [2]: potent agonists
stimulation of D1-3 receptors [3]: stimulates D1-3 receptors
time of onset of the subjective response, any drug effect VAS (mean±SD) ([4]; 0.1 mg LSD (Holze et al., 2019a), range 0.3-1.0): 0.7 ± 0.2 h
duration of subjective effects (mean±SD) ([4]; 0.1 mg LSD (Holze et al., 2019a), range 5.3-12.8): 8.5 ± 2.0 h
time of offset of the subjective response, any drug effect VAS (mean±SD) ([4]; 0.1 mg LSD (Holze et al., 2019a), range 6.0-13.2): 9.1 ± 2.0 h
subjects with bad drug effects (50% or more on a 0-100% scale at any time point) ([4]; 0.1 mg LSD, 3 of 24 subjects (Dolder et al., 2017)): 12.5%
subjects with transient bad drug effects ([4]; 0.1 mg LSD, 7 of 24 subjects (Holze et al., 2019a)): 29%
duration of LSD effects ([4]; 0.1 mg dose (Dolder et al., 2017), range 5-14): 8.2 ± 2.1 h
subjects with bad drug effects (50% or more on a 0-100% scale at any time point) ([4]; 0.2 mg LSD, 9 of 16 subjects (Dolder et al., 2017)): 56%
subjects with marked anxiety ([4]; 0.2 mg LSD, sixteen healthy humans (Schmid et al., 2015)): two
duration of LSD effects ([4]; 0.2 mg dose (Dolder et al., 2017), range 7-19.5): 11.6 ± 1.7 h
subjective response to LSD compared to MDMA ([4]; LSD 0.1 mg vs MDMA 125 mg (Holze et al., 2019b)): clearly more pronounced
time to the subjective peak effect ([4]; LSD (Holze et al., 2019a), range 1.6-4.3): 2.5 ± 0.6 h and 2.5 h
start of LSD effect, on average ([4]; oral administration): 42 min
time after administration at which anxiety mostly occurs (peak effects) ([4]; oral dosing formulation of LSD): 1 to 4 h
stimulation of the 5-HT2A receptor [5]: potently stimulates
peak subjective effects ratings of any drug effect (VAS) [6, 11]: comparable peak subjective effects ratings
duration of any drug effect (VAS) ([6]; 0.1 mg LSD, 100 mg MDMA or both, two subjects, FIG. 2A): lasted longer than those of MDMA
good drug effects duration (VAS) ([6]; 0.1 mg LSD, 100 mg MDMA or both, two subjects, FIG. 2B): lasted longer
bad drug effects (VAS) [6, 12]: minor subjective bad drug effects
anxiety (VAS) ([6]; 0.1 mg LSD, 100 mg MDMA or both, two subjects, FIG. 3B): moderate anxiety at drug effect onset
nausea (VAS) ([6]; 0.1 mg LSD, two subjects, FIG. 4B): moderate nausea at drug effect onset
ratings of openness (VAS) ([6]; two subjects): lower increases in openness
changes in visual perception (VAS) ([6]; two subjects, FIG. 5A): comparable changes in visual perception
synaesthesias (sounds influencing visual perception) (VAS) ([6]; two subjects, FIG. 5B): comparable changes
changes in the perception of time (VAS) ([6]; two subjects, FIG. 6A): comparable changes in the perception of time
ratings of being talkative (VAS) ([6]; two subjects): reduces talkative
degree of intro or extroversion (VAS) ([6]; two subjects, FIG. 11): no effect
wanting to be alone / with other people (VAS) ([6]; two subjects): wanted to be with others and not alone
Total average LC scores [7]: 18
alterations of consciousness on the 5D-ASC main and subscales [8]: comparable degrees of alterations of consciousness

CNC(C)Cc1ccc2c(c1)OCO2 (stereo not shown) [MDMA, 3,4-methylenedioxymethamphetamine]
duration of the subjective effect ([9]; MDMA (Vizeli et al., 2017)): 4.2 ± 1.3 h
onset of the MDMA effect (mean±SD) [9, 13]: 33 ± 24 min and 33 min
time to peak effect after MDMA administration [9, 13]: 1.6 ± 0.8 h and 1.6 h
peak subjective effects ratings of any drug effect (VAS) [6, 11]: comparable peak subjective effects ratings
bad drug effects (VAS) [6, 12]: moderately increased subjective bad drug effect ratings
ratings of openness (VAS) ([6]; two subjects): increases ratings of openness
ratings of being talkative (VAS) ([6]; two subjects): increases ratings of being talkative
ratings of trust (VAS) ([6]; two subjects, FIG. 9A): increases feelings of trust
wanting to be alone / with other people (VAS) ([6]; two subjects): wanted to be with others and not alone
Total average LC scores [7]: 12

COc1cc(CCN)cc(OC)c1OC [mescaline]
affinity for D2 receptors [10]: no affinity
agonist potency at serotonin 5-HT1 receptors [2]: low potency

CN(C)CCc1c[nH]c2cccc(O)c12 [psilocin]
interaction with the SERT [1]: inhibits the 5-HT transporter
agonist potency at serotonin 5-HT1 receptors [2]: potent agonists
